Results: ChEMBL document CHEMBL1201862, “PubChem BioAssay data set” (2004)
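Dose response: 5 concentrations. Exposure: 48 h. Format: 96-well plates. Endpoint: linear interpolation; highest concentration if not reached. GI50 is the concentration that inhibits growth by half.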 Calls of active or inactive are those of the source. No stated cut-off is given here; in the data, active = GI50 up to about 1.1 µM and inactive = higher.

Tests used:
Assay in all cases: growth of human tumour cells (NCI), 48 h
SW-620 = test system: SW-620
NCI/ADR-RES = test system: NCI/ADR-RES
NCI-H522 = test system: NCI-H522
A549 = test system: A549
RPMI-8226 = test system: RPMI-8226
786-0 = test system: 786-0
HT-29 = test system: HT-29
SF-268 = test system: SF-268
U-251 = test system: U-251
UACC-62 = test system: UACC-62
Malme-3M = test system: Malme-3M
RXF 393 = test system: RXF 393
SF-295 = test system: SF-295
PC-3 = test system: PC-3
DU-145 = test system: DU-145
T47D = test system: T47D
HCT-15 = test system: HCT-15
A498 = test system: A498
IGROV-1 = test system: IGROV-1
SNB-75 = test system: SNB-75
EKVX = test system: EKVX
SK-MEL-2 = test system: SK-MEL-2
NCI-H226 = test system: NCI-H226
CCRF-CEM = test system: CCRF-CEM
K562 = test system: K562
SK-OV-3 = test system: SK-OV-3
BT-549 = test system: BT-549
ACHN = test system: ACHN
MCF7 = test system: MCF7
HOP-62 = test system: HOP-62
MOLT-4 = test system: MOLT-4
MDA-MB-231 = test system: MDA-MB-231
OVCAR-8 = test system: OVCAR-8
MDA-MB-435 = test system: MDA-MB-435
OVCAR-3 = test system: OVCAR-3
CAKI-1 = test system: CAKI-1
KM12 = test system: KM12
HCC 2998 = test system: HCC 2998
COLO 205 = test system: COLO 205
SNB-19 = test system: SNB-19
Hs-578T = test system: Hs-578T
SR = test system: SR
UO-31 = test system: UO-31
MDA-N = test system: MDA-N
SK-MEL-5 = test system: SK-MEL-5
NCI-H460 = test system: NCI-H460
OVCAR-5 = test system: OVCAR-5
SN12C = test system: SN12C
M14 = test system: M14
HCT-116 = test system: HCT-116
SK-MEL-28 = test system: SK-MEL-28
LOX IMVI = test system: LOX IMVI
NCI-H23 = test system: NCI-H23
OVCAR-4 = test system: OVCAR-4
HL-60 = test system: HL-60
UACC-257 = test system: UACC-257
SF-539 = test system: SF-539
TK-10 = test system: TK-10

Measured: GI50

CC[C@H]1OC([C@H](O)C/C=C\C#C[Si](C)(C)C)C/C=C\C[C@H]1O[Si](C)(C)C(C)(C)C (stereo not given in full)
> 100 µM: HCT-15
inactive: SW-620 > 100 µM | NCI/ADR-RES > 100 µM | NCI-H522 40.9 µM | A549 > 100 µM | RPMI-8226 37.8 µM | 786-0 > 100 µM | HT-29 > 100 µM | SF-268 > 100 µM | U-251 > 100 µM | UACC-62 > 100 µM | Malme-3M > 100 µM | RXF 393 > 100 µM | SF-295 > 100 µM | PC-3 > 100 µM | DU-145 > 100 µM | T47D > 100 µM | A498 > 100 µM | IGROV-1 > 100 µM | SNB-75 > 100 µM | EKVX > 100 µM | SK-MEL-2 > 100 µM | NCI-H226 > 100 µM | CCRF-CEM 43.3 µM | K562 > 100 µM | SK-OV-3 > 100 µM | BT-549 > 100 µM | ACHN > 100 µM | MCF7 51.4 µM | HOP-62 > 100 µM | MOLT-4 > 100 µM | MDA-MB-231 > 100 µM | OVCAR-8 > 100 µM | MDA-MB-435 > 100 µM | OVCAR-3 > 100 µM | CAKI-1 > 100 µM | KM12 > 100 µM | HCC 2998 > 100 µM | COLO 205 > 100 µM | SNB-19 > 100 µM | Hs-578T > 100 µM | SR > 100 µM | UO-31 54.5 µM | MDA-N > 100 µM | SK-MEL-5 > 100 µM | NCI-H460 > 100 µM | OVCAR-5 > 100 µM | SN12C > 100 µM | M14 > 100 µM | HCT-116 > 100 µM | SK-MEL-28 > 100 µM | LOX IMVI 19.4 µM | NCI-H23 > 100 µM | OVCAR-4 > 100 µM

N#C[C@@H](c1ccccn1)c1ncccc1[N+](=O)[O-]
> 100 µM: HCT-15
inactive: SW-620 > 100 µM | NCI/ADR-RES > 100 µM | NCI-H522 > 100 µM | A549 > 100 µM | RPMI-8226 > 100 µM | 786-0 > 100 µM | HT-29 > 100 µM | SF-268 > 100 µM | U-251 > 100 µM | UACC-62 > 100 µM | Malme-3M > 100 µM | RXF 393 > 100 µM | SF-295 > 100 µM | PC-3 > 100 µM | DU-145 > 100 µM | T47D > 100 µM | A498 > 100 µM | IGROV-1 > 100 µM | SNB-75 > 100 µM | EKVX > 100 µM | SK-MEL-2 > 100 µM | CCRF-CEM > 100 µM | K562 > 100 µM | SK-OV-3 > 100 µM | BT-549 > 100 µM | ACHN > 100 µM | MCF7 74 µM | HOP-62 > 100 µM | MOLT-4 > 100 µM | MDA-MB-231 > 100 µM | OVCAR-8 > 100 µM | MDA-MB-435 > 100 µM | OVCAR-3 > 100 µM | CAKI-1 > 100 µM | HCC 2998 > 100 µM | COLO 205 > 100 µM | SNB-19 > 100 µM | Hs-578T > 100 µM | SR > 100 µM | UO-31 > 100 µM | MDA-N > 100 µM | SK-MEL-5 90.2 µM | NCI-H460 > 100 µM | OVCAR-5 > 100 µM | SN12C > 100 µM | M14 > 100 µM | HCT-116 > 100 µM | SK-MEL-28 > 100 µM | LOX IMVI > 100 µM | NCI-H23 > 100 µM | OVCAR-4 > 100 µM

COC(=O)C1CC2CCC1(O[Si](C(C)C)(C(C)C)C(C)C)C(O)C2 (stereo not given)
inactive: SW-620 26.4 µM | NCI/ADR-RES 31.8 µM | NCI-H522 21.8 µM | A549 16.8 µM | RPMI-8226 17.5 µM | 786-0 16.9 µM | HT-29 16.6 µM | SF-268 26.2 µM | U-251 16.5 µM | UACC-62 37 µM | Malme-3M 54.2 µM | RXF 393 15 µM | SF-295 20 µM | PC-3 20.7 µM | DU-145 16.4 µM | T47D 25.8 µM | A498 96.6 µM | IGROV-1 25.8 µM | SNB-75 21.9 µM | EKVX 16 µM | SK-MEL-2 15.1 µM | NCI-H226 21.2 µM | CCRF-CEM 24.3 µM | HL-60 13.1 µM | K562 12.4 µM | SK-OV-3 43.4 µM | BT-549 26.9 µM | ACHN 22.8 µM | MCF7 14.9 µM | HOP-62 18.4 µM | MOLT-4 10.9 µM | MDA-MB-231 17.7 µM | OVCAR-8 14.9 µM | MDA-MB-435 16.2 µM | OVCAR-3 17.3 µM | CAKI-1 38.5 µM | KM12 17.6 µM | HCC 2998 21.8 µM | COLO 205 29.4 µM | SNB-19 19.1 µM | Hs-578T 18.1 µM | SR 13.6 µM | UO-31 16.6 µM | MDA-N 22 µM | SK-MEL-5 23.1 µM | NCI-H460 33.7 µM | OVCAR-5 14.2 µM | SN12C 17.9 µM | M14 17.3 µM | HCT-116 18.2 µM | SK-MEL-28 19.4 µM | LOX IMVI 14.4 µM | NCI-H23 20.9 µM | OVCAR-4 28.6 µM
16.9 µM: HCT-15

Clc1cc2nnn(C3CCCCO3)c2cc1Cl (stereo not given)
inactive: NCI/ADR-RES 48.3 µM | NCI-H522 42.5 µM | A549 80.2 µM | UACC-257 60.7 µM | RPMI-8226 > 100 µM | 786-0 > 100 µM | HT-29 63.1 µM | SF-268 42.3 µM | U-251 80.7 µM | SF-539 > 100 µM | UACC-62 37.2 µM | Malme-3M > 100 µM | RXF 393 > 100 µM | SF-295 > 100 µM | PC-3 58.1 µM | DU-145 99.1 µM | T47D 30.4 µM | A498 36.1 µM | IGROV-1 > 100 µM | SNB-75 34.4 µM | EKVX 20.7 µM | SK-MEL-2 > 100 µM | NCI-H226 23.5 µM | TK-10 > 100 µM | CCRF-CEM > 100 µM | K562 > 100 µM | SK-OV-3 > 100 µM | BT-549 41.5 µM | ACHN > 100 µM | MCF7 > 100 µM | HOP-62 > 100 µM | MOLT-4 75.7 µM | MDA-MB-231 24.5 µM | OVCAR-8 > 100 µM | MDA-MB-435 > 100 µM | OVCAR-3 69.3 µM | CAKI-1 30.4 µM | KM12 86.3 µM | HCC 2998 > 100 µM | COLO 205 > 100 µM | SNB-19 > 100 µM | Hs-578T 35.4 µM | SR 51.6 µM | UO-31 30.7 µM | MDA-N > 100 µM | SK-MEL-5 38.7 µM | NCI-H460 88.9 µM | OVCAR-5 > 100 µM | SN12C > 100 µM | M14 > 100 µM | HCT-116 79.8 µM | NCI-H23 > 100 µM | OVCAR-4 > 100 µM
96.6 µM: HCT-15
